Experimental findings from patent US20240309004A1, “SELECTIVE CYCLIN-DEPENDENT KINASE INHIBITORS AND METHODS OF THERAPEUTIC USE THEREOF” (ViroKyne Therapeutics, LLC, priority 2021, published 2024) are described below.

Data set [1] in a line: Cytotoxicity concurrent with HCMV secondary assay. Particulars: human. The format is cell-based. Here is the method:
(§1) Monolayers of HFF cells were prepared in 96-well plates and incubated at 37° C. for 1 d to allow the cells to reach confluency. Media was then aspirated from the wells and cells infected at a high MOI. At 1 h following infection, the inocula were removed and the monolayers rinsed with fresh media. […] Drug dilutions were added to the wells and the plates were incubated for various times, depending on the virus used and represents a single replication cycle for the virus. A duplicate set of dilutions were also performed but remained uninfected to serve as a cytotoxicity control and received equal compound exposure. Supernatants from each of the infected wells were subsequently titered using CTG in a TCID50 assay to quantify the progeny virus. For HCMV only, viral yield in the supernatants from the infected cells were titered using qPCR with HCMV primers [NT], and probe [NT].

Data set [2] deals with HCMV strain AD169. The data set is described as follows: HCMV secondary assay (yield reduction), strain AD169, HFF cells. The following applies: Human betaherpesvirus 5, virus strain AD169, HFF cells. The format is cell-based, Human Cytomegalovirus. Here is the method:
as §1

Data set [3] deals with Murine CMV strain Smith. Briefly: Murine CMV primary assay, strain Smith, MEF cells. The format is cell-based, Mouse Cytomegalovirus.
In another data set the test system is MEF cells. The data set is described as follows: Cytotoxicity concurrent with Murine CMV secondary assay. The format is cell-based, mouse. Here is the method: (§2) Compounds that were positive in the CPE assay were confirmed in a similar assay in 96-well plates according to established laboratory protocols with the compounds added 1 h post infection […]. Additionally, 12 1:3 dilutions were done instead of 6 1:5 dilutions for added accuracy. Genome copy number was determined by qPCR using primers 5′-[…]-3′, 5′ […]-3′, and probe 5′-[…]-3′.

A short description of data set [4]: Cytotoxicity concurrent with HCMV AD169 primary assay. The following applies: human, CC50. The format is cell-based, human.
Data set [5] has as its system HCMV strain AD169. Briefly: HCMV primary assay (CPE), strain AD169, HFF cells. The following applies: HCMV primary assay, virus strain AD169, HFF cells; for pEC50: read-out: EC50; for EC90: read-out: EC90. The format is cell-based, Human Cytomegalovirus. Here is the method:
The antiviral activity of the compound against HCMV in the described Primary assay was measured by treating primary Human foreskin fibroblast (HFF) cells infected with HCMV with a range of compound concentrations—description of methods for this assay can be found in section 1.3.2.1. […] . Additional tested assay parameters in this Primary assay can be found in Table 3.2.1 and include EC90, S150, and S190 values—descriptions of those data points can be found in section 3.2.1.

The test system of data set [6] is Murine CMV strain Smith. The data set is described as follows: Murine CMV secondary assay, strain Smith, MEF cells. The format is cell-based, Mouse Cytomegalovirus. The method, then:
as §2

Data set [7] is described as follows: Cytotoxicity concurrent with HSV1 E-377 primary assay. Particulars: human. The format is cell-based. The method, then:
(§3) Assays were performed in monolayers as described. […] Toxicity was measured using CTG as above. […] Toxicity was measured using CTG as above.

Another data set deals with HSV1 strain E-377. The data set is described as follows: HSV1 primary assay, strain E-377, HFF cells. The format is cell-based, Herpes Simplex Virus 1. Particulars: Human alphaherpesvirus 1, HSV1 primary assay, strain E-377, HFF cells; for pEC50: read-out: EC50; for EC90: read-out: EC90. Here is the method:
as §3
(§4) Monolayers of HFF cells were prepared in six-well plates and incubated at 37° C. for 2 d to allow the cells to reach confluency. Media was then aspirated from the wells and 0.2 mL of virus-containing solution was added to each of three wells to yield 20-30 plaques in each well. The virus was allowed to adsorb to the cells for 1 h and the plates were agitated every 15 minutes. Compounds were diluted in assay media consisting of MEM with Earl's salts supplemented with 2% FBS, glutamine, penicillin, and gentamycin. Diluted drug was added to duplicate wells and the plates were incubated for various times, depending on the virus used. For HSV-1 and -2, the monolayers were then stained with 1% crystal violet in 20% methanol and the unbound dye removed by washing with dH20. For all other assays, the cell monolayer was stained with 1% Neutral Red solution for 4-6 h then the stain was aspirated and the cells were washed with PBS.

Data set [8] in a line: Metabolic stability in mice liver microsomes. The method, then:
Potassium phosphate buffer (Kphos) was prepared by adding 0.647 g potassium phosphate monobasic (KH2PO4) and 3.527 g potassium phosphate dibasic (K2HPO4) to 400 mL of Milli-Q water. pH of the buffer was adjusted to 7.4 and volume was made up to 500 mL.
Stock solutions of the test compounds were prepared in DMSO at a concentration of 1 mM.
To this microsomal mix 1.42 μL (1 mM) of test compound and positive control were spiked, from this mix 70 μL was transferred to 96 well plate and pre-incubated at 37° C. for 5 min. […] The plates were centrifuged at 4000 RPM for 15 min and 100 μL aliquots were submitted for analysis by LC-MS/MS.
Samples were monitored for parent compound disappearance in MRM mode using LC-MS/MS. The LC-MS/MS conditions and MRM chromatogram will be provided as per client request.
The peak area ratios of analyte versus internal standard were used to calculate the % remaining at the end of 60 minutes in presence NADPH.
For orientation: Microsomes from liver hold many membrane-bound enzymes, among them those of drug oxidation.

Data set [9] has as its system Epstein-Barr virus Akata strain. Briefly: Epstein-Barr primary assay, Akata strain, Akata cells. The format is cell-based. The following applies: human gammaherpesvirus 4, Epstein-Barr primary assay, Akata strain, Akata cells; for pEC50: read-out: EC50; for EC90: read-out: EC90.
The next data set has as its system HSV2 strain G. Briefly: HSV2 primary assay, strain G, HFF cells. The following applies: Human alphaherpesvirus 2, HSV2 primary assay, strain G, HFF cells; for pEC50: read-out: EC50; for EC90: read-out: EC90. The format is cell-based, herpes simplex virus 2. Here is the method: as §3, §4
Data set [10] is described as follows: Cytotoxicity concurrent with VZV Ellen primary assay. The format is cell-based. The following applies: human. Here is the method:
as §3

A short description of data set [11]: Cytotoxicity concurrent with EBV primary assay. The following applies: human, Akata cells without virus induction.
Data set [12] is described as follows: Cytotoxicity concurrent with HSV2 primary assay. The format is cell-based. The following applies: human. Here is the method:
as §3

Data set [13] can be described thus: Cytotoxicity concurrent with Adenovirus primary assay. The following applies: human. The format is cell-based.
The next data set concerns VZV strain Ellen. The data set is described as follows: VZV primary assay, strain Ellen, HFF cells. The following applies: Human alphaherpesvirus 3, VZV primary assay, strain Ellen, cell line HFF; for pEC50: read-out: EC50; for EC90: read-out: EC90. The format is cell-based, Varicella Zoster Virus. The method, then: as §3, §4
Data set [14] relates to Adenovirus Adenoid75 strain. Briefly: Adenovirus primary assay, Adenoid75 strain, HFF cells. The following applies: unidentified adenovirus, Adenovirus primary assay, HFF cells, Adenoid75 strain; for pEC50: read-out: EC50; for EC90: read-out: EC90. The format is cell-based.
Data set [15] has as its system Adenovirus Adenoid75 strain. Briefly: Adenovirus secondary assay (yield reduction), Adenoid75 strain, HFF cells. The format is cell-based. The following applies: unidentified adenovirus; Adeno secondary assay, strain Adenoid75, HFF cells; read-out: EC90. Here is the method: as §1
Data set [16] is described as follows: Cytotoxicity concurrent with Adenovirus secondary assay. Particulars: human, uninfected HFF cell monolayers; Adeno secondary assay, HFF cells. The format is cell-based. The method, then: as §1
The test system of a further data set is HFF cells. Briefly: Cytotoxicity concurrent with HCMV AD169 primary assay. The format is cell-based, human.
Data set [17] deals with HCMV strain GDGr K17 - resistant isolate. Briefly: HCMV primary assay, resistant isolate GDGr K17, HFF cells. The format is cell-based, Human Cytomegalovirus. Particulars: Human betaherpesvirus 5, HFF. Here is the method: as §3
The next data set addresses CDK9/cyclin T1 (Homo sapiens (Human), UniProt P50750). Briefly: Kinase activity assay, CDK9/cyclin T1. Particulars: Table 3.1.1; 10 μM ATP; 10-dose duplicate, 3-fold serial dilution starting at 10 μM; read-out: Compound IC50 CDK9/cyclin T1. The format is biochemical.
Where [18] appears, read: mice liver microsomes, 1 μM compound, 1 mM NADPH, 60 min.

pEC50, pIC50: −log10 of the molar value. Read-outs that look alike come from different tables or passages of the source.

Chain of CDK9/cyclin T1 (P50750 whole entry): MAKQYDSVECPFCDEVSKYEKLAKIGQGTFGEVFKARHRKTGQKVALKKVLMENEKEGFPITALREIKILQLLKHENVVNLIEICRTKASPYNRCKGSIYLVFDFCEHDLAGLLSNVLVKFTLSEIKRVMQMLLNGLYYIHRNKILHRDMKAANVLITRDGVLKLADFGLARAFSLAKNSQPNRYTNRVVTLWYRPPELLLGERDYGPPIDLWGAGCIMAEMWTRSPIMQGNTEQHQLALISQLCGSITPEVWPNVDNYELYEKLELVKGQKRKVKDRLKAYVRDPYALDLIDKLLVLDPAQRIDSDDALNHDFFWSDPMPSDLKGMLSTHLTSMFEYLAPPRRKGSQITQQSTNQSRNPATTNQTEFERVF
Chain of CDK9/cyclin T1 (O60563 whole entry partner): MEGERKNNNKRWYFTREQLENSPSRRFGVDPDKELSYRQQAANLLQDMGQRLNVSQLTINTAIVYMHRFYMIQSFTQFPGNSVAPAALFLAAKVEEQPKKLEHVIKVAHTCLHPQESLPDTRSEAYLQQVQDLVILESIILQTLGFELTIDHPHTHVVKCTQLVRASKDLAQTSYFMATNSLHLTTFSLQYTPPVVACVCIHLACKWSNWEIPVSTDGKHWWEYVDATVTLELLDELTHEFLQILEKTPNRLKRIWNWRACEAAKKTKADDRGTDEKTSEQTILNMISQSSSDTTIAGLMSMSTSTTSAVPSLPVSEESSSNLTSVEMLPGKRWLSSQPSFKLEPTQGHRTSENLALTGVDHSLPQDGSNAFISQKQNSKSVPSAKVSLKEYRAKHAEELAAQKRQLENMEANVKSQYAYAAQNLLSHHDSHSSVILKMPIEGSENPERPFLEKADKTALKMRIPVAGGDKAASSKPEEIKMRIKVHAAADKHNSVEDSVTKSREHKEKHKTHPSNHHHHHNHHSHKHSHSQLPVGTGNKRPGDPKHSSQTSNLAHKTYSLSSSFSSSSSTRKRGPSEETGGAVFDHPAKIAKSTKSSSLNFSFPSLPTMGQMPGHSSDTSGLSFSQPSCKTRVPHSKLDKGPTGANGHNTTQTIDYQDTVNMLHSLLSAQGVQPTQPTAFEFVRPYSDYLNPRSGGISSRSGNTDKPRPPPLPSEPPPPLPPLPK

What is called EC90 is the point of the concentration-response curve where the effect stands at 90%. In general, pEC50 refers to −log10 of the EC50, conventionally taken in molar units. On to `Nc1nc(O)c2ncn(COC(CO)CO)c2n1` [Ganciclovir, ganciclovir, reference compound], for which the figures for the CC50 (in [1]; in the data set with MEF cells; in [4]) were 20 µM, 84.8 μ.M and 150 µM, respectively. The EC90 is 3.88 µM with HCMV strain AD169 [2], 24.9 µM with Murine CMV strain Smith [3], 5.67 µM in the data set with HCMV strain AD169 [5] (Human betaherpesvirus 5) and 26 µM with Murine CMV strain Smith [6]. Besides, the pEC50 in the data set with Murine CMV strain Smith [3] was 5.26; with HCMV strain AD169 [5] (Human betaherpesvirus 5), 5.75; in the data set on Murine CMV strain Smith [6], 5.13.
On to `CN(C)C1CCC(Nc2cc3c4ccc(F)cc4nn3cn2)CC1` (stereo not shown) [VKT-007], for which, in data set [7], the CC50 was 16.1 µM. Further, in the data set with HSV1 strain E-377, the pEC50 is 5.00 and the EC90 was 10 µM. Also, the “% Remaining at 60 min” value in data set [8] (setting [18]) is 54%.
Regarding `Fc1ccc2c(c1)nn1cnc(NC3CCCOCC3)cc21` (stereo not shown) [VKT-015], the pEC50 was 5.06 in data set [9]; 4.30 with HSV2 strain G; 4.30 in the data set with HSV1 strain E-377; 5.00 with HCMV strain AD169 [5] (Human betaherpesvirus 5); 5.00 in the data set with VZV strain Ellen; 5.15 in data set [14]. The EC90 turned out to be 29.9 µM in data set [9]; 50 µM with HSV2 strain G; 50 µM with HSV1 strain E-377; 10 µM in the data set on HCMV strain AD169 [5] (Human betaherpesvirus 5); 10 µM in the data set on VZV strain Ellen; 10 µM in data set [14]. Moreover, in data set [15], the EC90 turned out to be 17.5 µM. In addition, the CC50 is 39.7 µM in [10]; 50 µM in data set [7]; 50 µM in data set [12]; 27.7 µM in data set [4]; 41.8 µM in [13]; 48.6 µM in data set [16]. Moreover, the CC50 at 72 h in data set [11] is 50 µM.
As for `O=S1(=O)CCC(Nc2cc3c4ccc(F)cc4nn3cn2)CC1` [VKT-018], the pEC50 was 4.34 in data set [9]; 4.30 with HSV2 strain G; 4.30 with HSV1 strain E-377; 4.30 in the data set with HCMV strain AD169 [5] (Human betaherpesvirus 5); 4.30 with VZV strain Ellen; 5.43 in data set [14]. Besides, the EC90 (in data set [9]; with HSV2 strain G; with HSV1 strain E-377; in the data set on HCMV strain AD169 [5] (Human betaherpesvirus 5); in the data set on VZV strain Ellen; in data set [14]) was 50 µM in each case. Besides, in [15], the EC90 came out at 16.4 µM. In addition, the CC50 in data set [10] was 50 µM; in data set [7], 50 µM; in [12] it was 50 µM; in data set [4] it was 50 µM; in data set [13] it was 50 µM; in data set [16] it was 97.1 µM. The CC50 at 72 h in data set [11] worked out at 50 µM.
For the compound `NC(=O)CN1CCC(Nc2cc3c4ccc(F)cc4nn3cn2)CC1` [VKT-026], the pEC50 is 5.00 with HSV2 strain G; 5.00 with HSV1 strain E-377; 5.00 in the data set on VZV strain Ellen; 5.11 in [14]; 6.77 in the data set with Murine CMV strain Smith [6]; 6.06 in [17]. In addition, the EC90 in the data set with HSV2 strain G came out at 50 µM; with HSV1 strain E-377 it was 10 µM; in the data set with VZV strain Ellen, 10 µM; in data set [14], 50 µM; in the data set on Murine CMV strain Smith [6], 5.38 µM; in [17], 10 µM. The CC50 is 22 µM in [10]; 10 µM in data set [7]; 50 μ.M with MEF cells; 29.4 µM in [12]; 26.9 µM in the data set on HFF cells (human); 24.7 µM in data set [13].
As to `N[C@@H]1CC[C@H](Nc2cc3c4ccc(F)cc4nn3cn2)C1` [VKT-034], the CC50 in data set [7] came to 18.7 µM. In the data set with HSV1 strain E-377, the pEC50 was 5.00 and the EC90 worked out at 10 µM. In addition, the “% Remaining at 60 min” value in data set [8] (setting [18]) is given as 81%.
The matching figures for `N[C@H]1CC[C@H](Nc2cc3c4ccc(F)cc4nn3cn2)C1` [VKT-036]: 29.4 µM, 5.00, 10 µM and 82%.
As for `N[C@H]1CC[C@H](Nc2cc3c4ccc(F)cc4nn3cn2)CC1` [VKT-511, (1r,4r)-N1-(7-fluoropyrimido[1,6-b]indazol-3-yl)cyclohexane-1,4-diamine], the pIC50 at CDK9/cyclin T1 was 7.33. Further, the CC50 in the data set on HFF cells stood at 6.98 µM. For the same compound, in the data set with HCMV strain AD169 [5], the pEC50 is 5.70 and the EC90 turned out to be 2 µM. Moreover, the “% Remaining at 60 min” value in data set [8] (mouse, microsomes, 1 h) is 107%.
